According to US9456589B2, “Elasmobranch-repelling compounds and methods of use” (priority 2005, dated 2016):
“And” between values parts separate entries of the source, which are not always exact repeats. Identical values can stand only once.

Tests used:
blue sharks = assay: Tonic immobility, syringe delivery to the mouth of blue sharks; format: in vivo, Prionace glauca; conditions: two blue sharks, two assays each, 20 mL or less
Text: The sharks had been captured on rod and reel and were held in tonic immobility along a boat.

nurse sharks = assay: Tonic immobility, Bite Assay; format: in vivo, C. cirratum
Description: One bioassay used to observe and measure flight response is the tonic immobility test. Tonic immobility is a state of paralysis that typically occurs when a shark is subject to inversion of its body along the longitudinal axis. This state is called “tonic,” and the shark can remain in this state for up to 15 minutes thereby allowing researchers to observe effects of chemical repellents. The “tonic” state of the shark is first established by releasing seawater in proximity to the “tonic” shark with the same delivery instrument and at the same distance as a “test” repellent compound will be released. Some controls are released with a high flow rate (30 mL/sec) in order to establish that sharks are not awakened by a jet of fluid over their noses. Once behavioral controls are established, a compound or composition that may have a repelling effect is delivered to the shark. […] Using this tonic immobility bioassay researches can quantify the strength of a repellent effect. […]
In Bite Assays, a dose of typically less than 5 mL of 3-methylbutanal was presented directly into the shark's mouth using a pipette. […] Because the delivery was directly into the shark's mouth and responses were generally observed immediately upon delivery, time to response was not recorded.

tiger sharks = assay: Tonic immobility, Hd Syringe Assay; format: in vivo, G. cuvieri; conditions: 1 ml
Description: (§1) One bioassay used to observe and measure flight response is the tonic immobility test. Tonic immobility is a state of paralysis that typically occurs when a shark is subject to inversion of its body along the longitudinal axis. This state is called “tonic,” and the shark can remain in this state for up to 15 minutes thereby allowing researchers to observe effects of chemical repellents. The “tonic” state of the shark is first established by releasing seawater in proximity to the “tonic” shark with the same delivery instrument and at the same distance as a “test” repellent compound will be released. Some controls are released with a high flow rate (30 mL/sec) in order to establish that sharks are not awakened by a jet of fluid over their noses. Once behavioral controls are established, a compound or composition that may have a repelling effect is delivered to the shark. If the compound or composition engenders a flight response, the shark will awaken from the tonic state and rapidly attempt to flee the delivered repellent. Using this tonic immobility bioassay researches can quantify the strength of a repellent effect.
Lemon, nurse, blacktip and tiger sharks were placed in tonic immobility by inverting the shark's body along its longitudinal axis. […]

[1] = tested on: sharks (lemon, nurse, blacknose, blacktip pooled); assay: Tonic immobility, Syringe Assay, summary over species; format: in vivo
Method in brief: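 Test chemical delivered as a bolus of 60 mL or more from one to five feet from the shark, distance set by water current strength. Time from delivery until response was recorded; it depends on bolus size, distance and current as the diffusing cloud reaches the shark.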

[2] = tested on: sharks (lemon, nurse, blacktip, tiger, blacknose pooled); assay: Tonic immobility, Syringe 3/5/10 Assay, summary over species; format: in vivo
Description: as §1
In the tonic immobility studies disclosed herein, several different methods were employed for delivery of repelling compounds. A first method for delivery of chemical repellent in tonic immobility studies employed a “Syringe 3/5/10 Assay” method. The “Syringe 3/5/10 Assay” method is so named because a test repellent is delivered to a shark from a distance of about “3” inches with a bolus of about “5” mL with a response to the test repellent considered positive if the shark reacts with a change in behavior within less than about “10” seconds from the time of delivery.
The “3/5/10 Syringe Assay” as employed herein delivered a dose of 5-6 mL of a test chemical repellent from a syringe fixed with a needle having a gauge of about 22 from a distance at least 3 inches in front of a shark. Because the test chemical repellent was delivered at a distance from the shark's nares and mouth, a cloud of test chemical repellent was dispersed over the shark within the water column. The dispersed test repellent was subject to water current direction, dispersion and dilution. As a result, a flight response within 10 seconds was considered a positive repellency response. […] Time from delivery to response is related to the size of the bolus delivered from the syringe, distance of the shark from the syringe and water current.
In Syringe 3/5/10 Assays, 5-6 mL of 3-methylbutanal was delivered at least 3 inches in front of the shark's mouth. A cloud of the repellent dispersed over the shark within the water column. […] As noted above, because the dispersion of the chemical repellent upon delivery is affected by volume of repellent, water current, and other factors, the time between delivery and response was not correlatable with the potency of the repellent.

sharks (species pooled) = assay: Tonic immobility, total of delivery methods not including Micropipette assays; format: in vivo
Description: as §1
Table 1, which summarizes the data in Tables 14 and 15, evidences the gustatory repellent characteristics of methylbutanals. In 35 of 36 assays (combining columns “Y” and “R” under the column labeled “Total (Not including Micropipette Assays)” to arrive at a 97% effectiveness rate), including assays on lemon, nurse, tiger and blacktip sharks, the gustatory repellent activity of 3-methylbutanal was established. In 81% of assays, tonic immobility was fully terminated. […] In only a single assay did a shark not respond to treatment with 3-methylbutanal.

[3] = species and delivery methods pooled

CC(C)CC=O [3-methylbutanal]
response to direct delivery to the mouth (blue sharks): behavioral response (classic mouth-agape response)
Bite Y (termination of tonic immobility), trials of trials (nurse sharks): each resulting in termination of tonic immobility and 2/2
Response (time from delivery to response) (tiger sharks): 1 s
TTI (termination of tonic immobility) (tiger sharks): Y
Syringe Y (termination of tonic immobility), trials of trials [1]: 7/7
Syringe 3/5/10 Y (termination of tonic immobility), trials of trials [2]: 7/7
Syringe 3/5/10 Y, percent of trials [2]: 100%
assays with termination of tonic immobility or behavior change (Y and R combined), not including Micropipette assays (sharks (species pooled); Hd Syringe, Syringe 3/5/10 and Bite, lemon, nurse, tiger, blacktip): 40 of 41 and 35 of 36
effectiveness rate (Y and R combined), not including Micropipette assays (sharks (species pooled); lemon, nurse, tiger, blacktip): 97%
Total (Not including Micropipette assays / Effective Delivery Methods) N, trials of trials (sharks (species pooled); [3]): single and 1/36
Total (Not including Micropipette assays / Effective Delivery Methods) R, trials of trials (sharks (species pooled); [3]): 6/36
Total (Not including Micropipette assays / Effective Delivery Methods) Y, trials of trials (sharks (species pooled); [3]): 29/36
Total N, percent of trials (sharks (species pooled); [3]): (3%)
